Measurements as given in patent US9656953B2, “Inhibition of cell proliferation” (University of South Florida, priority 2005, dated 2017).
Entries after “also recorded” stand apart in the source; their conditions may differ.

Assays:
[1] = molecular target: T1, binding of Rb to Raf-1 in A-549 cells (Homo sapiens, UniProt P04049+P06400); assay: IP-western, serum stimulated A-549 cells, Rb:Raf-1; type: cell-based
T1 construct: endogenous in cells; host or cells: A549
Description: (§1) Lysate preparation, pmmunoprecipitation, and pestern plotting.

cyclin D = assay: Western/IP-western, cyclin D level and association with Rb; type: cell-based, human; settings: IP-western
Description: as §1

[2] = system: Rb phosphorylation (serines 807 and 811); assay: Western blot of Rb phosphorylation, A549 cells; type: cell-based, human; settings: cells treated 18 hours, western blotting
Description: as §1

[3] = system: cdc6, cdc25A and TS promoters; assay: Chromatin immunoprecipitation (ChIP) assay, A549 cells; type: cell-based, human; settings: 20 μM
Description: Chromatin immunoprecipitation (ChIP) assay. A549 cells were rendered quiescent by serum starvation and re-stimulated with serum for 2h or 16h in the presence or absence of RRD 251 at 20μM. Cells were cross-linked with 1% formaldehyde for 10 minutes at room temperature. Subsequently, the cells were harvested and lysates were prepared. Immunoprecipitations were analyzed for the presence of E2F1, Rb, Raf-1, Brg1, HP1, and HDAC1 by PCR as previously described (Dasgupta 2004). Rabbit anti-mouse secondary antibody was used as the control for all reactions. The sequences of the PCR primers used in the PCRs were as follows: Cdc6 promoter (forward primer), 5′- […]-3′ (SEQ ID NO:1); and Cdc6 promoter (reverse primer), 5′-[…]-3′ (SEQ ID NO:2). TS promoter (forward primer), and 5′-GAC GGA GGC AGG CCA AGT G-3′ SEQ ID NO:3) TS promoter (reverse primer). The cdc25A and c-fos primers are described in (Dasgupta, 2004).
Since serum is known to stimulate the binding of Raf-1 to Rb and leads to the dissociation of the co-repressor Brg-1 from E2F-responsive proliferative promoters like cdc6, cdc25 and TS promoters, it was hypothesized that 3a may interfere with this process. […] Binding of E2F1, HDAC1 and HP1 was not affected.

A549 cells = assay: BrdU incorporation, S-phase entry, A549; type: cell-based, human; settings: 20 μM
Description: (§2) Proliferation assays. Bromodeoxyuridine (BrdU) labeling kits were obtained from Roche Biochemicals (Indianapolis, Ind.). Cells were plated in poly-D-lysine coated chamber slides at a density of 10,000 cells per well and rendered quiescent by serum starvation for 24 hours. Cells were then re-stimulated with serum in the presence or absence of the indicated drugs for 18 h. S-phase cells were visualized by microscopy and quantitated by counting 3 fields of 100 in quadruplicate.
To further confirm that 3a requires a functional Rb to inhibit tumor cell proliferation, A549 cells (human epithelial lung carcinoma) were stably transfected with two different shRNA constructs (sh6 and sh8) to knock down Rb expression.

[4] = system: Aspc1, PANC1, and CAPAN2 pancreatic cancer cells; assay: BrdU incorporation, S-phase entry, pancreatic cancer cells; type: cell-based; settings: range over three pancreatic cell lines
Description: as §2

[5] = system: U87MG glioblastoma cell line; assay: BrdU incorporation, S-phase entry, U87MG; type: cell-based; settings: null for p16 and PTEN
Description: as §2

MDA-MB-231 cells = assay: BrdU proliferation assay, MDA-MB-231; type: cell-based, human
Description: as §2
The metastatic human breast cancer cell line MDA-MB-231 harbors a K-Ras mutation and overexpresses EGFR.

H1650 tumors = assay: H1650 xenograft in nude mice; type: in vivo
A549-sh6 tumors = assay: A549-sh6 (Rb shRNA) xenograft in nude mice; type: in vivo; settings: 150 mpk orally
Description: Animal Studies. Nude mice (Charles River, Wilminton, Mass., USA) were maintained in accordance with Institutional Animal Care and Use Committee (IAUCUC) procedures and guidelines. A549 cells were harvested and resuspended in PBS, and then injected s.c. into the right and left flanks (10×10^6 cells per flank) of 8-week old female nude mice as reported previously (Sun 99). When tumors reached about 100-200 mm^3, animals were dosed intraperitoneally i.p. or orally by gavage with 0.1 mL solution once daily. Control animals received a vehicle, whereas treated animals were given 3a or RRD-238a at the indicated doses. The tumor volumes were determined by measuring the length (l) and the width (w) and calculating the volume (V=lw^2/2) as described previously (Sun 99). Statistical significance between control and treated animals were evaluated using Student's t-test.
Athymic nude mice were implanted with 1×10^7 A549 cells bilaterally and the tumors were allowed to reach 200 mm^3 in size before treatment began. […] Furthermore, to examine whether 3a could affect the growth of tumors lacking Rb in vivo, sh6 and sh8 (shRNA for Rb) cell lines were implanted into the flanks of nude mice. The mice were given 3a orally at 150 mpk and the control groups were administered the vehicle.

A549 tumors = assay: Immunohistochemistry staining of A549 xenograft tumors; type: in vivo, nude mice; settings: A549 tumors at end of treatment
Description: Immunohistochemistry staining. Upon termination of xenograft anti-tumor experiments, tumors were removed and fixed in 10% neutral-buffered formalin before processing into paraffin blocks. Tissue sections (5 micrometers (μm) thick) were cut from the blocks and stained with Ki-67, CD31, TUNEL, and phospho-Rb antibodies. Paraffin sections were rehydrated to PBS and processed using the following protocols. Sections were rinsed in dH2O, and then subjected to microwave ‘antigen retrieval’ for 20 minutes on 70% power, with a 1 minute cooling period after every 5 minutes, in 0.01 M sodium citrate, pH 6.0 (Janssen P J, Brinkmann A O, Boersma W J, Van der Kwast T H. J Histochem Cytochem 1994; 42(8):1169-75; Shi S R, Key M E, Kalra K L. J Histochem Cytochem 1991; 39(6):741-748). Sections were cooled for 20 minutes, rinsed 3 times in dH2O, twice in PBS and incubated in 5% normal goat serum for 30 minutes. Sections were incubated in primary antibody for 1 hour in 5% normal goat serum, rinsed 3 times in PBS. For color development the slides were treated with ABC kit (Vector Labs, Burlingame, Calif.) rinsed in dH2O, and developed using DAB as chromogen. After a final rinse in dH2O, sections were lightly counterstained in hematoxylin, dehydrated, cleared and coverslipped. Tissue sections were stained with hematoxylin and eosin (H&E) using standard histological techniques. Tissue sections were also subjected to immunostaining for CD31 (BD Biosciences, San Diego, Calif., USA) using the avidin-biotin peroxidase complex technique. Mouse monoclonal antibody was used at 1:50 dilution following microwave antigen retrieval (four cycles of 5 min each on high in 0.1 M citrate buffer). Apoptotic cells were detected using DeadEnd Colorimetric TUNEL system (Promega, Madison, Wis.).
At the end of the drug treatment, the A549 tumors were removed from the mice and fixed in formalin or snap frozen in liquid nitrogen for further histochemical analysis. The tumors were analyzed by immunohistochemistry staining with hematoxylin and eosin (H&E), TUNEL, Ki-67, phospho-Rb (807,811), and CD-31. […] Tumors were homogenized and lysates were prepared to assess the inhibition of Rb:Raf-1 interaction in vivo.

T1 sequence (P06400 whole entry): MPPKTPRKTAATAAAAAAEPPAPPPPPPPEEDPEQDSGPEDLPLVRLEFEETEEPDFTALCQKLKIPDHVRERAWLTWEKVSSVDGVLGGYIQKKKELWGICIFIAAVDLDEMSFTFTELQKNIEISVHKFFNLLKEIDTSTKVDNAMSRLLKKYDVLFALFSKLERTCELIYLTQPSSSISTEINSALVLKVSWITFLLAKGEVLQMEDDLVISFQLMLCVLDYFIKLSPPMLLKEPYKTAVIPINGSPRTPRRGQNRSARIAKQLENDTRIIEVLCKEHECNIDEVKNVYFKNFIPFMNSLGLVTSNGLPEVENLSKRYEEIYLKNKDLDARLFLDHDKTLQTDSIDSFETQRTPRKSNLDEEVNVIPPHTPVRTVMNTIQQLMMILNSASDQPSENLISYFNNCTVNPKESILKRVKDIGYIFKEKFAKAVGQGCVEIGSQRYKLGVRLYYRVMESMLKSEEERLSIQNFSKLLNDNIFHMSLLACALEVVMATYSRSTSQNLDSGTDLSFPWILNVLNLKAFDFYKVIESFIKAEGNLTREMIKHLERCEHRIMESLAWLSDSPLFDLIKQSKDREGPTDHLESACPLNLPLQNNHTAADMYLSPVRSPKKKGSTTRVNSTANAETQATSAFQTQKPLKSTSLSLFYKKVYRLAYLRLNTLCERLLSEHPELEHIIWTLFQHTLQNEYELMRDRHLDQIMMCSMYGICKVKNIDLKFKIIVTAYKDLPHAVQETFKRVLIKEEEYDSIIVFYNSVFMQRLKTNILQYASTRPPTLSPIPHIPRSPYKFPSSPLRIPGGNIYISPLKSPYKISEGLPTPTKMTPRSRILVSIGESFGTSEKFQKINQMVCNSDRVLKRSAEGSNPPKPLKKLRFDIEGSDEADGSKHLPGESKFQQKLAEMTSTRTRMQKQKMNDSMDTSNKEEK
T1 sequence (P04049 whole entry): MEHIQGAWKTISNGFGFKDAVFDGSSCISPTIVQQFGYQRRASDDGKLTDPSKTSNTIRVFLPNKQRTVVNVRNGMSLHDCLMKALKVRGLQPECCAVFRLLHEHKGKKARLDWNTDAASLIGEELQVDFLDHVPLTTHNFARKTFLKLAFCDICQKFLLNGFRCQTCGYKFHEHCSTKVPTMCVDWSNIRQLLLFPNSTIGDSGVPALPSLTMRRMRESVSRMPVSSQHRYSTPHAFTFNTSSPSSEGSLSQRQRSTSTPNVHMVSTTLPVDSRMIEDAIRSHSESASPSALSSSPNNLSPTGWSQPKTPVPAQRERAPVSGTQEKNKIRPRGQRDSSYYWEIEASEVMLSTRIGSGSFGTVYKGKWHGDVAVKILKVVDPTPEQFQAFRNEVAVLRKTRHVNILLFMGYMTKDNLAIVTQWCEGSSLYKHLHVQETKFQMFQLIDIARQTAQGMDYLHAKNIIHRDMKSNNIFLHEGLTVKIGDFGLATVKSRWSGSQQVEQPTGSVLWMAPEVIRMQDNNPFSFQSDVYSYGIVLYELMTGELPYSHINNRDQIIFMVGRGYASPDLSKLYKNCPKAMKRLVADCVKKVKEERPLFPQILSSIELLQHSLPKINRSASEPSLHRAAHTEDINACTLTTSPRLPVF

Cl.N=C(N)SCc1ccc(Cl)cc1Cl [Compound 3a]
serum stimulated binding of Rb to Raf-1 [1]: inhibited | level of cyclin D and its association with Rb (cyclin D): tended to reduce the levels of cyclin D as well as its association with Rb; also recorded: reduced | Rb phosphorylation [2]: reduced Rb phosphorylation significantly; also recorded: marked reduction in Rb phosphorylation | Raf-1 binding to E2F-responsive promoters upon serum stimulation [3]: causes the dissociation of Raf-1; also recorded: disrupted | binding of E2F1, HDAC1 and HP1 to promoters [3]: not affected | dissociation of co-repressor Brg-1 from promoters [3]: retention of Brg1; also recorded: inhibited | S-phase entry (BrdU), parental A549 (A549 cells): arrests wild-type A549 cells; also recorded: very effective | inhibition of S-phase entry, Aspc1, PANC1, CAPAN2 [4]: 50-65% | S-phase entry, U87MG [5]: inhibited S-phase entry | inhibition of proliferation, MDA-MB-231 (MDA-MB-231 cells): 56% | H1650 tumor growth in words (H1650 tumors; 50 mpk i.p.): inhibited H1650 xenograft tumor growth; also recorded: inhibited the growth of these tumors significantly | tumor size, H1650 xenograft (H1650 tumors; 50 mpk/day i.p., vehicle 2185±326 mm^3): 557±76 mm3 | tumor growth, A549-sh6 tumors lacking Rb (A549-sh6 tumors): unable to inhibit tumor growth; also recorded: did not respond | apoptosis, TUNEL staining of tumors (A549 tumors): dose dependent increase in apoptosis | microvasculature, CD31 staining of tumors (A549 tumors): reduction in microvasculature | phospho-Rb staining of tumors (A549 tumors): reduction in phosphorylation of Rb | proliferation, Ki-67 staining of tumors (A549 tumors): significant inhibition of proliferation
